Source: US5508304A, “Glucagon antagonists and methods relating thereto” (ZymoGenetics, Inc., priority 1994, dated 1996)

Experiments:
glucagon receptor = biological target: T1, glucagon receptor (Rattus norvegicus, UniProt P30082); experiment: Adenylate cyclase assay: glucagon-stimulated cAMP production in liver plasma membranes (Amersham Scintillation Proximity Assay kit); assay type: biochemical; settings: for cAMP response to glucagon, serial dilutions of test substance: fixed 5 nM glucagon stock, 5 μl per well; for inhibition of cAMP activity with increasing concentration of test substance (FIG. 7): fixed concentration of glucagon
T1 construct: Liver plasma membranes for use in adenylate cyclase assays were prepared; from tissue; host or cells: rat liver plasma membranes
T1 sequence (P30082 27-485): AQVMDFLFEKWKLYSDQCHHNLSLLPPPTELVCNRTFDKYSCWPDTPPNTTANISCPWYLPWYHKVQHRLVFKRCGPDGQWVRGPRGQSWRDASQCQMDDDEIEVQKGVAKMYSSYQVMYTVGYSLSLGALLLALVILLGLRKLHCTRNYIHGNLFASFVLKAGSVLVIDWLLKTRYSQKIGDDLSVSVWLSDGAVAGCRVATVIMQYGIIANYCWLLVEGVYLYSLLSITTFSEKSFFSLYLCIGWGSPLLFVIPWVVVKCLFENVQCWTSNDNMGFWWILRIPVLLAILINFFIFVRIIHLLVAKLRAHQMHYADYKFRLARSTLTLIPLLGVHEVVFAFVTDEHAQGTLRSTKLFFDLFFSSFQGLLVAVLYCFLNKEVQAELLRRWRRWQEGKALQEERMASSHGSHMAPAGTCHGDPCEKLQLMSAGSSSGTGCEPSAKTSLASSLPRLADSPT
Procedure: Liver plasma membranes for use in adenylate cyclase assays were prepared essentially as described by Neville et al. (Biochim. Biophys. Acta 154:540-552, 1968) as modified by Pohl (Methods in Receptor Research, Blecher (ed.), New York, pp. 160-164, 1976). Twenty rats were euthanized by decapitation, and the livers were removed and cooled to 4° C. After cooling, the livers were maintained at 4° C. during the membrane preparation. The approximate volume of the livers was determined. Three volumes of medium (1 mM NaHCO3, 0.5 mM CaCl2) were added to the livers, and the liver tissue was roughly minced with scissors. The minced tissue was divided into two parts, and each part was homogenized for thirty seconds in a Waring-type blender at full speed. After homogenization, the homogenates were each transferred to a sieve with a 1.5 mm pore size, and the homogenates were strained through the sieve. The straining procedure was repeated for each homogenate through a finer screen. The strained homogenates were combined, and medium was added to a final volume of one liter. The homogenate was further homogenized with a Dounce homogenizer using eight vigorous strokes of the loose pestle. The homogenates were filtered through four layers of cheesecloth. The strained homogenates were centrifuged at approximately 150×g in a swinging bucket rotor for 20 minutes at 4° C. The supernalant was discarded, and the precipitate was resuspended in 500 ml of medium and homogenized in a Dounce homogenizer with three strokes of the loose pestle. The centrifugation was repeated, and the resulting precipitate was resuspended in 250 ml of medium. The homogenate was centrifuged as described, and the precipitate was suspended in 50 to 100 ml of medium. The suspension was homogenized in a Dounce homogenizer with three strokes of the loose pestle. Sucrose from a 69% sucrose solution was added to the suspension to a final sucrose concentration of 44.0±0.1%. The solution was centrifuged in an ultracentrifuge at approximately 100,000×g for 150 minutes. The membranes were removed from the top of the tube with a spoon. The membranes were stored at -80° C.
Adenylate cyclase assays were carried out in the presence and absence of […] diluted in DMSO. Glucagon (Mallinkrodt Inc. St. Louis, Mo.) was dissolved in 10% acetic acid and lyophilized in 25-μg portions. The lyophilized glucagon was dissolved in 100 μl of 0.05M HCl and left for three minutes, after which the glucagon was serially diluted in buffer (2.5% human serum albumin (Grade 5, Sigma Chemical Co., St. Louis, Mo.) in 0.1M HEPES, 0.15M NaCl, pH 7.4) to final concentrations of between 0 and 100 nM. Aliquots of the membrane preparations were thawed and diluted with water to a protein concentration of approximately 3-5 mg/ml.
For each 96-well assay plate, triplicate samples were assayed in the presence and absence of 20 μM skyrin. […] Five microliters of 20 μM skyrin in DMSO or 5 μl of DMSO alone was added to each well. Fifty microliters of incubation mixture (0.1% human serum albumin (Grade 5, Sigma), 15 mM MgCl2, 1 mM ATP, 0.9 mM IBMX (3-isobutyl-1-methylxanthine, Sigma), 15 mM creatine phosphate, and 5 mg/ml creatine phosphokinase in 50 mM Tris-HCl (pH 7.4) was then added to each well. […]
The cAMP produced in each reaction was determined by assaying 10 μl of each sample using an Amersham Scintillation Proximity Assay kit (Amersham, Arlington Heights, Ill.). […]

[1] = biological target: T2, glucagon binding to rat liver membranes (Rattus norvegicus, UniProt P30082); experiment: 125I-glucagon binding to rat liver membranes; settings: 20 μl of 56 μM skyrin vs DMSO; 30 min at 30° C.; FIG. 8
T2 construct: 0.2 mg of rat liver membranes in 20 μl in water; from tissue; host or cells: rat liver membranes
T2 sequence (P30082 27-485): as above
Procedure: Glucagon binding to rat liver membranes in the presence and absence of skyrin was determined in this experiment. Reactions tubes were prepared, each of which contained 20 μl of serially diluted unlabeled glucagon from 10^-5 M to 10^-10 M, 100 μl of 2× binding buffer (100 mM HEPES, pH 7.6), 200 mM NaCl, 2 mM EDTA, 2.0% bovine serum albumin (BSA), 1.0 mg/ml of bacitracin (Sigma Chem. Co.), approximately 0.1 nmoles of ^125 I-glucagon (Amersham) in 10 mM acetic acid/0.5% BSA with a specific activity of 2000 Ci/mmole, 20 μl of 56 μM skyrin (dissolved and diluted in DMSO) or DMSO, and water to achieve a final volume of 180 μl. The reaction was initiated by the addition of 0.2 mg of rat liver membranes in 20 μl in water. The reactions were incubated for 30 minutes at 30° C. After incubation the tubes were centrifuged at high speed in a microfuge for 10 minutes at 4° C. The supernatants were discarded, and the radioactivity in the pellets was quantitated with a gamma-counter (the level of radioactivity in a sample indicated the total binding of glucagon to the rat liver membranes). […] Based on this experiment, it is believed that the glucagon antagonists of this invention, including skyrin and skyrin analogs, function as glucagon antagonists by interrupting postglucagon binding events.

[2] = test system: GTPγS-stimulated cAMP production; experiment: Adenylate cyclase assay with GTPγS, receptor-independent stimulation of cAMP production; assay type: biochemical, rat
Procedure: (§1) Liver plasma membranes for use in adenylate cyclase assays were prepared essentially as described by Neville et al. (Biochim. Biophys. Acta 154:540-552, 1968) as modified by Pohl (Methods in Receptor Research, Blecher (ed.), New York, pp. 160-164, 1976). Twenty rats were euthanized by decapitation, and the livers were removed and cooled to 4° C. After cooling, the livers were maintained at 4° C. during the membrane preparation. The approximate volume of the livers was determined. Three volumes of medium (1 mM NaHCO3, 0.5 mM CaCl2) were added to the livers, and the liver tissue was roughly minced with scissors. The minced tissue was divided into two parts, and each part was homogenized for thirty seconds in a Waring-type blender at full speed. After homogenization, the homogenates were each transferred to a sieve with a 1.5 mm pore size, and the homogenates were strained through the sieve. […]
(§2) The cAMP produced in each reaction was determined by assaying 10 μl of each sample using an Amersham Scintillation Proximity Assay kit (Amersham, Arlington Heights, Ill.).
(§3) The specificity of the skyrin antagonist activity was assessed by replacing the serial dilutions of glucagon with serial dilutions of vasoactive intestinal peptide (VIP; Sigma Chemical Co., St. Louis, Mo.), calcitonin gene-related peptide (CGRP), forskolin (Calbiochem, San Diego, Calif.) and GTP-γS. […]

[3] = test system: forskolin-stimulated cAMP production; experiment: Adenylate cyclase assay with forskolin, receptor-independent stimulation of cAMP production; assay type: biochemical, rat; settings: presence and absence of 0.02 mM skyrin
Procedure: as §1, §2, §3

[4] = Stark et al. 1978; cited from earlier work
rat liver mitochondria = settings: cited from earlier work
[5] = biological target: T3, CGRP-stimulated non-glucagon G protein-coupled receptors in liver membranes (Rattus norvegicus, UniProt Q63118); experiment: Adenylate cyclase assay with CGRP in place of glucagon; assay type: biochemical; settings: serial dilutions of CGRP, with and without skyrin; FIG. 5
T3 construct: Liver plasma membranes for use in adenylate cyclase assays were prepared; from tissue; host or cells: rat liver plasma membranes
T3 sequence (Q63118 24-464): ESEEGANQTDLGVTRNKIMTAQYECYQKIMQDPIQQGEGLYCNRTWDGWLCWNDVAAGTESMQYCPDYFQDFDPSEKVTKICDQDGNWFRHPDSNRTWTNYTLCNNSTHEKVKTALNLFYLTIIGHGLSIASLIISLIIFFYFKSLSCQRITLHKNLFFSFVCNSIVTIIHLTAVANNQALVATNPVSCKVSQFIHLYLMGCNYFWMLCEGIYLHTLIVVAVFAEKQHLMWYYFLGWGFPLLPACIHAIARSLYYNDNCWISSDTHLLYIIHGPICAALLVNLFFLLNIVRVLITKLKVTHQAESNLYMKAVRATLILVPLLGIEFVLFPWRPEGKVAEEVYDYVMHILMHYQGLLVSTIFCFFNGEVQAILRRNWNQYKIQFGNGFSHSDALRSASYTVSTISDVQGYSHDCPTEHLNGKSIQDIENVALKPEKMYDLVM
T3 sequence (Q9JJ74 27-148 partner): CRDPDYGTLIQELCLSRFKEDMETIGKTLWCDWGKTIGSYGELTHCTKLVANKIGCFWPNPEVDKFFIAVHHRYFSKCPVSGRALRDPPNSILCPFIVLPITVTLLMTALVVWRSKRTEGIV
Procedure: as §1, §2, §3

[6] = test system: rat leukemia cell mitochondria; settings: cited from earlier work
[7] = test system: rice dwarf virus-RNA transcriptase; settings: Yangai et al. 1976; cited from earlier work
[8] = biological target: T4, VIP-stimulated non-glucagon G protein-coupled receptors in liver membranes (Rattus norvegicus, UniProt P30083); experiment: Adenylate cyclase assay with VIP in place of glucagon; assay type: biochemical; settings: serial dilutions of VIP, with and without skyrin; FIG. 4
T4 construct: Liver plasma membranes for use in adenylate cyclase assays were prepared; from tissue; host or cells: rat liver plasma membranes
T4 sequence (P30083 31-459): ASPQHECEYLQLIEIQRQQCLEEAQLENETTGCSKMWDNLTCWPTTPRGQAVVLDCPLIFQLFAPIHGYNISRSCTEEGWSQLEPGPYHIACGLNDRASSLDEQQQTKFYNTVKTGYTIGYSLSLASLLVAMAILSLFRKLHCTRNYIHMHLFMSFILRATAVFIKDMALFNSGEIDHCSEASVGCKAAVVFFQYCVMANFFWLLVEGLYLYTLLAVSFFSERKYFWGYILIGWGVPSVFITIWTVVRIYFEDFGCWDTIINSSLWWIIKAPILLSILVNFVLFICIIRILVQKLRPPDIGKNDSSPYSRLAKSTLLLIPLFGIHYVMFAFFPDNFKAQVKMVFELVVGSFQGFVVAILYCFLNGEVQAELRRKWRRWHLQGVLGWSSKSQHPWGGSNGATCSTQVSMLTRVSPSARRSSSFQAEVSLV
Procedure: as §1, §2, §3

Row | cAMP response to glucagon, serial dilutions of test substance (glucagon receptor) | inhibition of cAMP activity with increasing concentration of test substance (FIG. 7) (glucagon receptor) | binding of glucagon to rat liver membrane [1] | cAMP levels produced by GTPγS ([2]; presence and absence of 0.02 mM skyrin) | GTPγS-stimulated cAMP levels (FIG. 6) ([2]; presence of 0.2 mM skyrin as printed) | cAMP levels produced by forskolin [3] | stimulation of cAMP production by CGRP [5] | cAMP response to glucagon (glucagon receptor; 20 μM skyrin in DMSO vs DMSO alone, glucagon 0-100 nM, FIG. 3) | stimulation of cAMP production by VIP [8] | Structure (SMILES) | mutagenicity [4] | uncoupling of oxidative phosphorylation (rat liver mitochondria) | uncoupling of oxidative phosphorylation [6] | inhibition of rice dwarf virus-RNA transcriptase [7]
1 | inhibited cAMP response to glucagon | increase in inhibition of cAMP activity | – | – | – | – | – | – | – | Cc1cc(O)c2c(c1)C(=O)c1c(c(O)cc(O)c1-c1c(O)cc(O)c3c1C(=O)c1cc(CO)cc(O)c1C3=O)C2=O [oxyskyrine] | – | – | – | –
2 | inhibited cAMP response to glucagon | increase in inhibition of cAMP activity | increased binding of glucagon | unaffected | uneffected | unaffected | did not affect the stimulation | inhibited the cAMP response to glucagon | did not affect the stimulation | Cc1cc(O)c2c(c1)C(=O)c1c(c(O)cc(O)c1-c1c(O)cc(O)c3c1C(=O)c1cc(C)cc(O)c1C3=O)C2=O [skyrin] | non-mutagenic | uncouple oxidative phosphorylation | uncouple oxidative phosphorylation | selectively inhibit
